Experimental data reported in patent US20260240812A1, “TREATMENT FOR AMYOTROPHIC LATERAL SCLEROSIS (ALS)” (Zydus Lifesciences Limited, priority 2023, published 2026).
“And” between values parts separate entries of the source, which are not always exact repeats. Identical values can stand only once.

Test system: patients with Amyotrophic Lateral Sclerosis (ALS)
Experiment: Phase 2 placebo controlled, randomized, double blind 12-week study, ALSFRS-R total score
Type: in vivo, human
Text: Efficacy, Safety, Tolerability, Pharmacokinetics and Pharmacodynamics of Formula (I) in Patients with Amyotrophic Lateral Sclerosis • Protocol Title: A phase 2, proof-of-concept, placebo controlled, randomized, double blind study of compound of formula (I) to evaluate the efficacy, safety, tolerability, pharmacokinetics and pharmacodynamics in patients with Amyotrophic Lateral Sclerosis (ALS). • Study design: A phase 2, proof-of-concept, placebo controlled, randomized, double blind, 12-week study of compound of formula (I) to evaluate the efficacy, safety, pharmacokinetics, and pharmacodynamics in patients with Amyotrophic Lateral Sclerosis (ALS). • Study population: Male or female patients aged between 18-80 years (both inclusive at screening) with diagnosis of Amyotrophic Lateral Sclerosis who meet eligibility criteria • Number of Patients: Approximately 24 patients (06 patients in each arm) are enrolled. • Duration of Patient Participation: 114±5 Days (Including 28 days of screening)
• To measure the efficacy of the treatment using the slope of progression with the revised Amyotrophic Lateral Sclerosis Functional Rating Scale (ALSFRS-R)
• Change from baseline in the ALSFRS-R total score [Time Frame: From baseline to Week 12] […]

## CN1CCC[C@]1(C)/C=C/S(=O)(=O)NC(=O)Nc1c2c(cc3c1CCC3)CCC2 [formula (I)]
Baseline to Week 12, one line per patient, arm not given
  Change from baseline in the ALSFRS-R total score: −8 points and −1 points and 4 points and 0 points and 1 points and −3 points
Over 12 weeks, ALS patients
  ALSFRS-R score, result in words: stable and improved ALSFRS-R score in some patients
